Source: US20260199346A1, “METHODS OF TREATING SOLID TUMORS DRIVEN BY HER2 ALTERATIONS WITH TUCATINIB IN COMBINATION WITH AN ANTI-HER2 ANTIBODY” (Seagen Inc., priority 2020, published 2026)

Columns and labels:
HER2 [1] = molecular target: T1, HER2 (Homo sapiens, UniProt P04626); assay: HER2 internalization assay using Trastuzumab-AF488; format: cell-based; conditions: tucatinib 100 nM, SK-BR-3 cells, imaged at time points spanning 72 hours
Procedure: (§1) To probe the dynamics of HER2 at the cell surface upon binding to antibody therapeutics in the presence or absence of tucatinib (100 nM), SK-BR-3 cells were incubated with fluorescently-labeled trastuzumab (Trastuzumab-AF488) to mark HER2 at the cell surface. Excess antibody was washed out. Cells were imaged at time points spanning 72 hours to observe internalization of surface-bound antibody. […] Concurrent experiments were conducted with trastuzumab labeled with QF (Trastuzumab-QF) […], a quenched fluorophore which fluoresces upon lysosomal processing and can serve as a proxy for antibody catabolism.

HER2 [2] = molecular target: T1, HER2; assay: inhibition of HER2 in vitro; format: biochemical
Text: (§2) Tucatinib inhibits the HER2-driven mitogen-activated protein and PI3 kinase signaling pathways, resulting in inhibition of tumor cell proliferation, survival, and metastasis.

HER2 [3] = molecular target: T1, HER2; assay: HER2 internalization assay using Trastuzumab-QF (lysosomal processing); format: cell-based; conditions: tucatinib 100 nM; SK-BR-3 cells; Trastuzumab-QF in the presence of chloroquine
Procedure: as §1

HER2 [4] = molecular target: T1, HER2; assay: HER2 total protein levels by western blot analysis (WES system), normalized against GAPDH; format: cell-based; parameters: four different HER2-amplified breast cancer cell lines (BT-474, SK-BR-3, HCC-1419, and UACC-893); endogenous in cells; host or cells: BT-474, SK-BR-3, HCC-1419, UACC-893; conditions: 30 nM or 100 nM tucatinib, 24 hours and 48 hours; BT-474, SK-BR-3, HCC-1419 and UACC-893 HER2-amplified breast cancer cell lines
Procedure: (§3) Protein lysates were generated from cells harvested at each time point, HER2 total protein levels were determined by western blot analysis using a WES system, and normalized against GAPDH levels as a loading control. As shown in FIG. 1A-1D, in all four cell lines tested, HER2 total protein levels increased after treatment with tucatinib relative to untreated cell lines. Total HER2 protein levels are shown as a percentage of the total HER2 protein levels of untreated cells. Plasma membrane-bound levels of HER2 were determined by quantitative FACS (qFACS) analysis after exclusion of dead cells. As shown in FIG. 1E-1H, treatment with either 30 nM or 100 nM increased plasma membrane-bound HER2 protein levels in all four cell lines relative to untreated cell lines. Plasma membrane-bound HER2 protein levels are shown as a percentage of the plasma membrane-bound HER2 protein levels of untreated cells.

HER2 [5] = molecular target: T1, HER2; assay: plasma membrane-bound HER2 levels by quantitative FACS (qFACS); format: cell-based; parameters: four different HER2-amplified breast cancer cell lines (BT-474, SK-BR-3, HCC-1419, and UACC-893); endogenous in cells; host or cells: BT-474, SK-BR-3, HCC-1419, UACC-893; conditions: 30 nM or 100 nM tucatinib, 24 hours and 48 hours; BT-474, SK-BR-3, HCC-1419 and UACC-893 HER2-amplified breast cancer cell lines
Procedure: as §3

HER2 [6] = molecular target: T1, HER2; assay: cellular signaling assays, selectivity for HER2 compared to EGFR; format: cell-based; parameters: four different HER2-amplified breast cancer cell lines (BT-474, SK-BR-3, HCC-1419, and UACC-893); endogenous in cells; host or cells: BT-474, SK-BR-3, HCC-1419, UACC-893
Text: as §2

T1 sequence (P04626 23-1255): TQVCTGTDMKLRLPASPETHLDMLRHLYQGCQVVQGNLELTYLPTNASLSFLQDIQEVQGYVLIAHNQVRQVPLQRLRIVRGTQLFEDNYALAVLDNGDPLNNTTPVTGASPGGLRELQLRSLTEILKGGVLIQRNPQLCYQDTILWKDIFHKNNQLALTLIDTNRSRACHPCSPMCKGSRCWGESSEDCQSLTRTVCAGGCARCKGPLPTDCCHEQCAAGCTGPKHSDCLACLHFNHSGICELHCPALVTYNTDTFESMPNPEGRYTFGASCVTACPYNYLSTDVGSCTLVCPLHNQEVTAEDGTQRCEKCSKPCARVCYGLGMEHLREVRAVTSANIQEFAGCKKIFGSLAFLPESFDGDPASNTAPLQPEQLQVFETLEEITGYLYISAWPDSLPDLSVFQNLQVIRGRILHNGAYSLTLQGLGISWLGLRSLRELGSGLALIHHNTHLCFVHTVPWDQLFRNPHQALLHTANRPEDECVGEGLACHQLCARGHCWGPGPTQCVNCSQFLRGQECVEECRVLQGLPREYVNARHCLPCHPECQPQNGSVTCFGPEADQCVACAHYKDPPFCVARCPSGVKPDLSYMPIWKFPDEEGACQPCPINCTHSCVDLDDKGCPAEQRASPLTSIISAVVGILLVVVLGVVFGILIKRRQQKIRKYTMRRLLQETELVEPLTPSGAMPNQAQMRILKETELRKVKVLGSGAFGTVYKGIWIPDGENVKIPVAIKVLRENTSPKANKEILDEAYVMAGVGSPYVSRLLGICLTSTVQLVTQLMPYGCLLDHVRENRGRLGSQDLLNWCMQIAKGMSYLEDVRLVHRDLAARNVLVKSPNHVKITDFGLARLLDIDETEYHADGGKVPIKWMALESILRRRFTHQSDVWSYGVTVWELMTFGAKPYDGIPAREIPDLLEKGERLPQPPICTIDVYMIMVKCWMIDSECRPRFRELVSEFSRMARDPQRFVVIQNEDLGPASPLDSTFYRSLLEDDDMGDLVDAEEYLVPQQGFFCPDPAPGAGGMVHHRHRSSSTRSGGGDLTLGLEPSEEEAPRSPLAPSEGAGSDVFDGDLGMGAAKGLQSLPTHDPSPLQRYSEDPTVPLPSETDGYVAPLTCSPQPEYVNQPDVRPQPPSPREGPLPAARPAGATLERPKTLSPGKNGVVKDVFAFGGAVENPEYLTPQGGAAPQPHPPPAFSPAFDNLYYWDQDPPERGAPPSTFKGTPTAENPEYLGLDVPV

With `Cc1cc(Nc2ncnc3ccc(NC4=NC(C)(C)CO4)cc23)ccc1Oc1ccn2ncnc2c1` [tucatinib, N^4-(4-([1,2,4]triazolo[1,5-a]pyridin-7-yloxy)-3-methylphenyl)-N^6-(4,4-dimethyl-4,5-dihydrooxazol-2-yl) quinazoline-4,6-diamine] the “dwell time of HER2 at the cell surface” value (HER2 [1]) was “increased”, the “inhibition of HER2 in vitro” value (HER2 [2]) was “potent inhibitor of HER2 in vitro” and the “internalization and lysosomal processing of HER2-bound antibody” value (HER2 [3]) was “rapid internalization and lysosomal processing”. The “HER2 total protein levels relative to untreated cell lines” value (HER2 [4]) was “increased”, the “plasma membrane-bound HER2 protein levels relative to untreated cell lines” value (HER2 [5]) was “increased” and the “selectivity for HER2 compared to the closely related kinase EGFR” value (HER2 [6]) was greater than 1000 fold.
